Values of other authors as cited in patent publication US9918970B2, “Pharmaceutical composition comprising solifenacin” (Astellas Pharma Inc., priority 2010, dated 2018).

Molecular target: muscarinic M3 receptor (Homo sapiens, UniProt P20309)
Sequence (P20309 whole entry): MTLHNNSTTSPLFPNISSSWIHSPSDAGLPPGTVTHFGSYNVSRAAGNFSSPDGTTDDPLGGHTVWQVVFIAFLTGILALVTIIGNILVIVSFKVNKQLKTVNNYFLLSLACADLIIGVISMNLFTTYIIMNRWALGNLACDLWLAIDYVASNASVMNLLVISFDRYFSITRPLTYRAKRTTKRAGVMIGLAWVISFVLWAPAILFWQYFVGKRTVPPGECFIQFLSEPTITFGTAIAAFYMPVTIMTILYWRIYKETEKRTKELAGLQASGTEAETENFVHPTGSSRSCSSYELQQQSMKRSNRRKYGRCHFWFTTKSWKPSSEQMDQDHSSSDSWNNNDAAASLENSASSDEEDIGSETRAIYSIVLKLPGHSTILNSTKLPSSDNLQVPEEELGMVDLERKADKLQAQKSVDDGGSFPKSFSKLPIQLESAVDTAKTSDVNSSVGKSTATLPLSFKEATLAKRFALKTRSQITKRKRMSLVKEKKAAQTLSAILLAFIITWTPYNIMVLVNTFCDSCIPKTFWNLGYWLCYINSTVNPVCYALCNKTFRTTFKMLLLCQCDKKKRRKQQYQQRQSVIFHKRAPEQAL

O=C(O[C@H]1CN2CCC1CC2)N1CCc2ccccc2[C@@H]1c1ccccc1 [solifenacin, (R)-quinuclidin-3-yl (S)-1-phenyl-1,2,3,4-tetrahydroisoquinoline-2-carboxylate]
antagonistic activity against muscarinic M3 receptor (in words): excellent selective antagonistic activity | selectivity for the M3 receptor as compared with the M2 receptor (in words) (M3 in smooth muscle, gland tissues, M2 in heart): higher selectivity
